Reference: US20150094310A1, “CRHR1 ANTAGONISTS FOR USE IN THE TREATMENT OF PATIENTS HAVING CRH OVERACTIVITY” (HOLSBOERMASCHMEYER NEUROCHEMIE GMBH, priority 2012, published 2015)

What was measured:
Cor26 CRH mice = assay: REMS levels by EEG/EMG recording in Cor26 CRH mice and control littermates; settings: for REMS activity / REMS levels: CRH-overexpressing Cor26 CRH mice, 50 mg/kg/d via drinking water
Experimental: (§1) Experiments were conducted with two different mouse lines of excessive central CRH secretion and their respective control littermates (CL). Mice of the CRH-COE^CNS line are characterised by CRH-overexpression within the whole CNS, whereas mice of the Cor26 CRH line display a CRH-overexpression specific to CRH-ergic neurons of the CNS. Three different CRHR1 antagonists were tested. […] In all cases, animals were left to recover from EEG/EMG-electrode implantation for two weeks, after which two days of baseline recording were initiated. Treatment with CRH-R1 antagonist or respective vehicle control commenced thereafter for five consecutive days. Antagonists were applied through the drinking water at a daily dose of 50 mg/kg body weight. EEG and EMG recordings were manually scored as wake, non-REMS (NREMS), and REMS in four second epochs by an experienced evaluator.

[1] = tested on: mice overexpressing CRH in the forebrain; settings: cited from earlier work
CRH-COE^CNS mice = assay: REMS activity by EEG/EMG recording in CRH-COE^CNS mice and control littermates; settings: for REMS activity: treatment days vs baseline
Experimental: as §1

CCC(CC)Oc1cc(C)nc(Oc2c(C)cc(C)cc2C)c1C [CP-316,311]
REMS activity / REMS levels (Cor26 CRH mice; 50 mg/kg/day): apparently seemed weak
REMS activity / REMS levels (Cor26 CRH mice; listed as CP-316311, 50 mg/kg/day): suppressed
REMS levels, area under the curve (AUC) within the light period (Cor26 CRH mice; Cor26 CRH mice, baseline vs treatment day three, P=0.006): significant decrease

COCC(COC)Nc1nc(C)nc2c(-c3ccc(Cl)cc3Cl)c(C)nn12 [DMP-696]
REM enhancement [1]: could reverse the REM enhancement
REMS activity in control littermates (CRH-COE^CNS mice; CL (control) mice, 50 mg/kg/d via drinking water): only a mild suppression of REMS
treatment day of strongest suppression of REMS activity (CRH-COE^CNS mice; CRH-COE^CNS mice, 50 mg/kg/d): treatment day three
REMS activity (CRH-COE^CNS mice; CRH-COE^CNS mice, 50 mg/kg/d via drinking water, 50 mg/kg/day): significant decrease in REMS activity
REMS activity (CRH-COE^CNS mice; CRH-COE^CNS mice, 50 mg/kg/d via drinking water, listed as DMP696, 50 mg/kg/day): suppressed
